The values that follow come from paper PMC6700223 (Frontiers in Microbiology, 2019).

Data set [1] is classed as physicochemical. The conditions noted are these: pH 7.2.
Data set [2] relates to LASV GPC protein-mediated cell–cell fusion (293T/LASV/EGFP cells and Huh-7 cells). The conditions noted are these: pH 5; for IC50: 12 h.

One may read the IC50 as the midpoint of a concentration-inhibition curve. Lower therefore signals greater potency. With `CC[C@H](C)[C@H](NC(=O)[C@H](CC(=O)O)NC(=O)[C@H](CC(=O)O)NC(=O)[C@H](CO)NC(=O)[C@H](Cc1ccccc1)NC(=O)[C@H](Cc1c[nH]cn1)NC(=O)[C@@H](NC(=O)[C@H](CCC(=O)O)NC(=O)[C@H](CC(N)=O)NC(=O)[C@H](CC(C)C)NC(=O)[C@H](Cc1ccc(O)cc1)NC(=O)[C@H](CO)NC(=O)CNC(=O)[C@H](CC(N)=O)NC(=O)[C@H](CO)NC(=O)[C@@H](NC(=O)[C@H](CC(C)C)NC(=O)[C@H](Cc1c[nH]c2ccccc12)NC(=O)[C@@H](N)CS)C(C)C)[C@@H](C)O)C(=O)N[C@@H](CCC(=O)O)C(=O)N[C@@H](CCC(N)=O)C(=O)N[C@@H](CCC(N)=O)C(=O)N[C@@H](C)C(=O)N[C@@H](CC(=O)O)C(=O)N[C@@H](CC(N)=O)C(=O)N[C@@H](CCSC)C(=O)N[C@H](C(=O)N[C@H](C(=O)N[C@@H](CCC(=O)O)C(=O)N[C@@H](CCSC)C(=O)N[C@@H](CC(C)C)C(=O)N[C@@H](CCC(N)=O)C(=O)N[C@@H](CCCCN)C(=O)N[C@@H](CCC(=O)O)C(=O)N[C@@H](Cc1ccc(O)cc1)C(=O)N[C@@H](CCSC)C(=O)N[C@@H](CCC(=O)O)C(=O)N[C@@H](CCCNC(=N)N)C(=O)N[C@@H](CCC(N)=O)C(=O)NCC(=O)N[C@@H](CCCCN)C(=O)N[C@H](C(=O)N1CCC[C@H]1C(=O)N[C@@H](CC(C)C)C(=O)NCC(=O)N[C@@H](CC(C)C)C(=O)N[C@H](C(=O)N[C@@H](CC(=O)O)C(=O)O)C(C)C)[C@@H](C)O)[C@@H](C)O)[C@@H](C)CC` [HR2-1], the α-helical ratio in data set [1] is 28%. Moreover, in data set [2], 0.37 µM corresponded to half-maximal inhibition (IC50) and the “Inhibition of cell–cell fusion at 20 μM” value is “completely inhibit”.
With `CC[C@H](C)[C@H](NC(=O)[C@H](CC(=O)O)NC(=O)[C@H](CC(=O)O)NC(=O)[C@H](CO)NC(=O)[C@H](Cc1ccccc1)NC(=O)[C@H](Cc1c[nH]cn1)NC(=O)[C@@H](NC(=O)[C@H](CCC(=O)O)NC(=O)[C@H](CC(N)=O)NC(=O)[C@H](CC(C)C)NC(=O)[C@H](Cc1ccc(O)cc1)NC(=O)[C@@H](N)CO)[C@@H](C)O)C(=O)N[C@@H](CCC(=O)O)C(=O)N[C@@H](CCC(N)=O)C(=O)N[C@@H](CCC(N)=O)C(=O)N[C@@H](C)C(=O)N[C@@H](CC(=O)O)C(=O)N[C@@H](CC(N)=O)C(=O)N[C@@H](CCSC)C(=O)N[C@H](C(=O)N[C@H](C(=O)N[C@@H](CCC(=O)O)C(=O)N[C@@H](CCSC)C(=O)N[C@@H](CC(C)C)C(=O)N[C@@H](CCC(N)=O)C(=O)N[C@@H](CCCCN)C(=O)N[C@@H](CCC(=O)O)C(=O)N[C@@H](Cc1ccc(O)cc1)C(=O)N[C@@H](CCSC)C(=O)N[C@@H](CCC(=O)O)C(=O)N[C@@H](CCCNC(=N)N)C(=O)N[C@@H](CCC(N)=O)C(=O)NCC(=O)N[C@@H](CCCCN)C(=O)N[C@H](C(=O)N1CCC[C@H]1C(=O)N[C@@H](CC(C)C)C(=O)O)[C@@H](C)O)[C@@H](C)O)[C@@H](C)CC` [HR2-2], in data set [2], it took 26.4 µM to reach half-maximal inhibition (IC50) and the “Inhibition of cell–cell fusion at 20 μM” value is 30–40%.
